Source: PMC11111691, “Cystine-knot peptide inhibitors of HTRA1 bind to a cryptic pocket within the active site region” (Nature Communications, 2024)
Positions of bridges follow the written chain, without caps; N, C: chain ends. Residues, ends and D or L forms follow the SMILES beside them.

Assays:
HTRA1^PD(SA) = target: T1, HTRA1^PD(SA) (Homo sapiens, UniProt Q92743, S328A); experiment: SPR binding kinetics to HTRA1^PD(SA); settings: mean ± S.D. of three or more independent experiments
T1 construct: The protease domains of human HTRA1 (HTRA1^PD; D161-K379); made in house; host or cells: E. coli
T1 sequence (Q92743 161-379 S328A): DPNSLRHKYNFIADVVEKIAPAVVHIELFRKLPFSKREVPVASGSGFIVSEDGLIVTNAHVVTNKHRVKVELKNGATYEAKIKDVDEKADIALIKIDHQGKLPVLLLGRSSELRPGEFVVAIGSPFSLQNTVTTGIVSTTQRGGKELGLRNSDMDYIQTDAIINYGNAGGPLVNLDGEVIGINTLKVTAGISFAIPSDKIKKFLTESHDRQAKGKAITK
Method: Surface plasmon resonance (SPR) experiments were performed using a Biacore S200 instrument at 25 °C. His-tagged HTRA proteins were captured on a CM5 sensor chip using the His-capture kit (GE Healthcare). Protein concentrations used for immobilization were as follows; HTRA1^PD(SA), HTRA1^PD and HTRA1^PD-ABP 2 µg/ml with 60-s injections at 10 µl/min, HTRA2^PD/PDZ, HTRA3^PD/PDZ, and HTRA4^PD/PDZ 4 µg/ml with 60-s injections at 10 µl/min. Approximate immobilization levels of HTRA proteins were as follows; HTRA1^PD(SA) 700 RU, HTRA1^PD 900 RU, HTRA1^PD-ABP 900 RU, HTRA2^PD/PDZ 500 RU, HTRA3^PD/PDZ 500 RU, HTRA4^PD/PDZ 500 RU. All CKPs were prepared in HBS-EP buffer (0.01 M HEPES pH 7.4, 0.15 M NaCl, 3 mM EDTA, 0.005% v/v Surfactant P20). All CKP concentrations were injected for 120 s at a flow rate of 30 μl/min. A reference channel was subtracted from the HTRA-captured channel.
Binding kinetics of peptides to HTRA1^PD(SA) were determined by flowing six serial three-fold dilutions of peptide over the HTRA1^PD(SA) immobilized surface using a single cycle kinetics model. CKP maximum concentrations were as follows: 1A7, 1A8, 1C10, 2D5, and 3A7, 300 nM; 1G10-ENI and 1D3-ENI, 100 nM; 3B3, 3000 nM; and CPI, 10,000 nM. Data were analyzed using GE BIA evaluation software using a 1:1 Langmuir binding model. The KD values, calculated from the determined kon and koff values, were the mean ± S.D. of 3–4 independent experiments.

HTRA1^FL = target: T2, HTRA1^FL (Homo sapiens, UniProt Q92743); experiment: HTRA1^FL enzyme inhibition assay with synthetic substrate H2-OPT; assay type: biochemical
T2 construct: Human full-length HTRA1 (HTRA1^FL, Q23-P480); made in house; host or cells: Trichoplusia ni cells
T2 sequence (Q92743 23-480): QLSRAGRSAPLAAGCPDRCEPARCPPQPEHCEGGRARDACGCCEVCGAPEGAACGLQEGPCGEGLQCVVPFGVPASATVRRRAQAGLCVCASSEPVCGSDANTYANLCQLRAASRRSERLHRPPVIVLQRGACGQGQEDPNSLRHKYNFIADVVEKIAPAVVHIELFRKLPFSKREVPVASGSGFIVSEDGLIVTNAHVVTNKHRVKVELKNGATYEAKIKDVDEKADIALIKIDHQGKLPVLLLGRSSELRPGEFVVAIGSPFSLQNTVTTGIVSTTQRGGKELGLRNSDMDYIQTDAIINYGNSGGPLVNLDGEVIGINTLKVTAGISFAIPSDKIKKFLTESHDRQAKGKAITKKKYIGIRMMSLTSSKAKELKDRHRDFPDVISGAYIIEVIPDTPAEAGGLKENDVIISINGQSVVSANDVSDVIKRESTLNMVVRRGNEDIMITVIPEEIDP
How it was run: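 CKP or 7mer-ABP preincubated with protease at 37 °C (CKP 60 min; 7mer-ABP 15 min, 2 µM selectivity), then 5 µM Mca-IRRVSYSFK(Dnp)K added in TNC buffer, 0.25% DMSO. Cleavage read kinetically at 37 °C (ex 328/em 393 nm); initial rates as % DMSO control, IC50 by 4PL fit.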

HTRA3^PD/PDZ, HTRA3^FL = target: T3, HTRA3^PD/PDZ, HTRA3^FL (Homo sapiens, UniProt P83110); experiment: H2-OPT selectivity assay, HTRA3; assay type: biochemical; settings: 2 µM CKP (0.5 mM 7mer-ABP)
T3 construct: purchased Abcam (FL form); the PD/PDZ form was made in house in E. coli ab134450
Method: Assays with the fluorescence-quenched synthetic substrate Mca-IRRVSYSFK(Dnp)K (H2-OPT)[38],[60] were carried out essentially as described. CKP stock solutions in DMSO were diluted in TNC buffer (dilution series for IC50 determinations, or final concentration of 2 µM for selectivity assay or as indicated for HTRA1/4 mutants) and incubated with enzymes in 96-well black optical bottom plates for 60 min at 37 °C. For selectivity experiments we used the 7mer-ABP as inhibitor, which was incubated with the proteases for 15 min at 37 °C. A 10 mM stock solution of H2-OPT in DMSO was diluted with water, prewarmed at 37 °C and then added to the CKP-enzyme mixtures. The final concentrations in the reaction mixtures were: 1 nM HTRA1^FL, 3 nM HTRA1^PD/PDZ, 1 nM HTRA1^PD, 1 nM HTRA2^PD/PDZ, 3 nM HTRA3^FL, 60 nM HTRA3^PD/PDZ, 6 nM HTRA4^FL, 1 µM HTRA4^PD/PDZ, 1 nM mouse HTRA1^PD, 25 nM HTRA1^PD-A202Y, 1 µM HTRA4^PD/PDZ-Y200A, 0.5 mM 7mer-ABP, 5 µM H2-OPT, and 0.25% DMSO. The kinetics of substrate cleavage was measured at 37 °C on a SpectraMax M5 microplate reader with excitation of 328 nm and emission of 393 nm. The determined initial rates of cleavage were expressed as percent of control (DMSO control) after subtracting the baseline rates (without enzyme). IC50 values were determined by Sigmoidal 4PL modeling of multiple data points from serial dilutions of CKPs using Prism 9 software (GraphPad). […]

HTRA4^PD/PDZ, HTRA4^FL [1] = target: T4, HTRA4^PD/PDZ, HTRA4^FL (Homo sapiens, UniProt P83105); experiment: H2-OPT selectivity assay, HTRA4; assay type: biochemical; settings: 6 nM HTRA4^FL, 2 µM CKP (0.5 mM 7mer-ABP)
T4 construct: purchased Abcam (FL form); the PD/PDZ form was made in house in E. coli ab134444
T4 sequence (P83105 32-476): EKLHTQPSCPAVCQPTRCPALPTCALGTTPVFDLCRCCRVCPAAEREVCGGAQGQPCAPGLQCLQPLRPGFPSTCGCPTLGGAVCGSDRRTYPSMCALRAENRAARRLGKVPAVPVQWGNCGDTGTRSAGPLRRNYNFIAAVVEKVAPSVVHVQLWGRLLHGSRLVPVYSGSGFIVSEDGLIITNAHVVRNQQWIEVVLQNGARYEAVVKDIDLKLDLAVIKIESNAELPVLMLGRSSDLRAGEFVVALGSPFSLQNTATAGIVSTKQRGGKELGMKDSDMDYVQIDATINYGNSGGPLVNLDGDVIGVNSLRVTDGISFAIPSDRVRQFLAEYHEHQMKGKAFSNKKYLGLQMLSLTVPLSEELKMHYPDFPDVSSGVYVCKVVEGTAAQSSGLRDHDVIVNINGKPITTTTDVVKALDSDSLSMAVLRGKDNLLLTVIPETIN
Method: (§1) Assays with the fluorescence-quenched synthetic substrate Mca-IRRVSYSFK(Dnp)K (H2-OPT)[38],[60] were carried out essentially as described. CKP stock solutions in DMSO were diluted in TNC buffer (dilution series for IC50 determinations, or final concentration of 2 µM for selectivity assay or as indicated for HTRA1/4 mutants) and incubated with enzymes in 96-well black optical bottom plates for 60 min at 37 °C. For selectivity experiments we used the 7mer-ABP as inhibitor, which was incubated with the proteases for 15 min at 37 °C. A 10 mM stock solution of H2-OPT in DMSO was diluted with water, prewarmed at 37 °C and then added to the CKP-enzyme mixtures. The final concentrations in the reaction mixtures were: 1 nM HTRA1^FL, 3 nM HTRA1^PD/PDZ, 1 nM HTRA1^PD, 1 nM HTRA2^PD/PDZ, 3 nM HTRA3^FL, 60 nM HTRA3^PD/PDZ, 6 nM HTRA4^FL, 1 µM HTRA4^PD/PDZ, 1 nM mouse HTRA1^PD, 25 nM HTRA1^PD-A202Y, 1 µM HTRA4^PD/PDZ-Y200A, 0.5 mM 7mer-ABP, 5 µM H2-OPT, and 0.25% DMSO. The kinetics of substrate cleavage was measured at 37 °C on a SpectraMax M5 microplate reader with excitation of 328 nm and emission of 393 nm. The determined initial rates of cleavage were expressed as percent of control (DMSO control) after subtracting the baseline rates (without enzyme). IC50 values were determined by Sigmoidal 4PL modeling of multiple data points from serial dilutions of CKPs using Prism 9 software (GraphPad). For selectivity assays with HTRA1-4^PD/PDZ constructs, the specific activities of the enzymes and enzyme:CKP inhibitor ratios were as follows: HTRA1^PD/PDZ, 12560 mRFU/min/nM – 1:667; HTRA2^PD/PDZ, 32300 mRFU/min/nM – 1:2000; HTRA3^PD/PDZ, 962 mRFU/min/nM – 1:33; HTRA4^PD/PDZ, 18 mRFU/min/nM – 1:2.

HTRA4^PD/PDZ, HTRA4^FL [2] = target: T5, HTRA4^PD/PDZ, HTRA4^FL (Homo sapiens, UniProt P83105); experiment: H2-OPT selectivity assay, HTRA4; assay type: biochemical; settings: 1 µM HTRA4^PD/PDZ, 2 µM CKP (0.5 mM 7mer-ABP), 5 µM H2-OPT
T5 construct: purchased Abcam (FL form); the PD/PDZ form was made in house in E. coli ab134444
T5 sequence (P83105 153-476): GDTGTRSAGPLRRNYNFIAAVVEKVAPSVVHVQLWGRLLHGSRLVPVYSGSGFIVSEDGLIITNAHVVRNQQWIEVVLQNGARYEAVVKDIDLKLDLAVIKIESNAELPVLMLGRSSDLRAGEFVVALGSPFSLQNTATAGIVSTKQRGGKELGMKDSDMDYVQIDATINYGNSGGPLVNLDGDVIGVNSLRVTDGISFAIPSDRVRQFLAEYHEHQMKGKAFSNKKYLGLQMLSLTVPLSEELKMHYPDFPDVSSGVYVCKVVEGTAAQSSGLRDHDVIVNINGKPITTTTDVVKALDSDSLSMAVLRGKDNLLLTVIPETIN
Method: as §1

[3] = SPR Biacore S200, 25 °C, single cycle kinetics, 1:1 Langmuir model

Inhibition of HTRA3^FL, H2-OPT (% of control) (HTRA3^PD/PDZ, HTRA3^FL; 3 nM HTRA3^FL) | Inhibition of HTRA3^PD/PDZ, H2-OPT (% of control) (HTRA3^PD/PDZ, HTRA3^FL; 60 nM HTRA3^PD/PDZ, 5 µM H2-OPT) | Inhibition of HTRA4^FL, H2-OPT (% of control) (HTRA4^PD/PDZ, HTRA4^FL [1]) | Inhibition of HTRA4^PD/PDZ, H2-OPT (% of control) (HTRA4^PD/PDZ, HTRA4^FL [2]) | Inhibition of HTRA1^FL at single concentration, H2-OPT (% of control) (HTRA1^FL; 1 nM HTRA1^FL, 2 µM CKP (0.5 mM 7mer-ABP)) | Compound | koff (HTRA1^PD(SA); [3]) | kon (HTRA1^PD(SA); [3]) | Kd (HTRA1^PD(SA); SPR, calculated from kon and koff, CPI up to 10 µM) | IC50 (HTRA1^FL)
– | – | – | – | – | CC[C@H](C)[C@H](NC(=O)[C@@H]1CCCN1C(=O)[C@H](CC(=O)O)NC(=O)[C@H](C)NC(=O)[C@@H](N)Cc1c[nH]cn1)C(=O)N[C@H]1CSSC[C@@H]2NC(=O)[C@H](Cc3ccccc3)NC(=O)[C@H](Cc3c[nH]c4ccccc34)NC(=O)[C@H](C)NC(=O)CNC(=O)[C@H](CO)NC(=O)[C@@H]3CSSC[C@@H](C(=O)NCC(=O)N4CCC[C@H]4C(=O)N[C@@H](Cc4ccc(O)cc4)C(=O)N[C@H](C(=O)NCC(N)=O)C(C)C)NC(=O)[C@H](CO)NC(=O)[C@H](Cc4c[nH]c5ccccc45)NC(=O)[C@H]([C@@H](C)O)NC(=O)[C@H](C)NC(=O)[C@H](Cc4ccc(O)cc4)NC(=O)[C@H](Cc4ccc(O)cc4)NC(=O)[C@H](CSSC[C@H](NC(=O)[C@@H]4CCCN4C(=O)[C@H](CCCCN)NC(=O)[C@H](CC(N)=O)NC1=O)C(=O)N[C@@H](CCCCN)C(=O)N[C@@H]([C@@H](C)O)C(=O)N[C@@H](Cc1c[nH]cn1)C(=O)N[C@@H](CC(=O)O)C(=O)N[C@@H](CC(=O)O)C(=O)N3)NC(=O)[C@H](C)NC(=O)[C@H](CCC(N)=O)NC2=O [3B3] (H-HADPICNKPCKTHDDCSGAWFCQACYYATWSCGPYVG-NH2; disulfide 6-22, 10-25, 16-32) | 3.8 ± 0.5 s-1 x10-4 | 1.1 ± 0.2 M-1 s-1 x104 | 34 nM | 53 nM
significantly inhibited | significantly inhibited | significantly inhibited | significantly inhibited | significantly inhibited | DPMFKLV-phosphonate [7mer-ABP] | – | – | – | –
